Where two headings read alike, the source gives them in different places.

The experiment has as its target human α7 nAChR (Homo sapiens, UniProt P36544). Briefly: Automated patch-clamp electrophysiology functional assay (Assay A). To be noted: IonFlux HT whole-cell population patch, HEK cell line stably expressing human RIC-3 and human α7, 40 μM acetylcholine. Type of experiment: cell-based. In short, it runs like this: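 Whole-cell population patch clamp at room temperature on HEK cells stably expressing human α7 and RIC-3, held at −60 mV. Compounds tested at three ascending concentrations per recording, with or without 40 μM acetylcholine; currents quantified relative to an initial 1 s 40 μM acetylcholine response; EC50 from concentration series.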
On the technique in general: The patch-clamp technique gives a direct electrical read-out from membranes.

human α7 nAChR, sequence (P36544 23-502): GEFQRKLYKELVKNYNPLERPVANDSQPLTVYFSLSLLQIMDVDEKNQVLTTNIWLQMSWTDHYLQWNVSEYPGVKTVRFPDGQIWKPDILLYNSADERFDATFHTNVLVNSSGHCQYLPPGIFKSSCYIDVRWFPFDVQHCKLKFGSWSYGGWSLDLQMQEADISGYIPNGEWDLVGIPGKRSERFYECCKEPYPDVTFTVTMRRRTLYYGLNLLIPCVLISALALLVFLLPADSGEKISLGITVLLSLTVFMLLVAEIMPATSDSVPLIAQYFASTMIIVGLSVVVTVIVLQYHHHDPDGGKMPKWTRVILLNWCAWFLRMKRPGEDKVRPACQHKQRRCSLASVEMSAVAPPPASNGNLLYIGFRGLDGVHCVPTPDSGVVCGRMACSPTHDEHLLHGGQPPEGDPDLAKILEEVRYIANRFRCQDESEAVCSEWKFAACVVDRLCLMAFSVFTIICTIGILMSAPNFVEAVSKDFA

`CC1(C)[C@@H](c2nc(-c3ccccc3)no2)[C@@H]1c1ncc(S(N)(=O)=O)s1` [Example 6, 2-[(1S,3S)-2,2-dimethyl-3-(3-phenyl-1,2,4-oxadiazol-5-yl)cyclopropyl]-1,3-thiazole-5-sulfonamide]: the EC50 was 590 nM (read-out: α7 nAChR EC50) and 500 to 5000 nM (read-out: α7 nAChR Potency).
For `CC1(C)[C@@H](c2ccc(S(N)(=O)=O)nc2)[C@@H]1c1nc(-c2cccc(F)c2)no1` [Example B1, 5-{(1S,3S)-3-[3-(3-Fluorophenyl)-1,2,4-oxadiazol-5-yl]-2,2-dimethylcyclopropyl}pyridine-2-sulfonamide] the same measures were 310 nM and 100 to 500 nM.
For `CC1(C)[C@H](c2ccc(S(N)(=O)=O)cn2)[C@H]1c1nc(-c2ccc(F)cc2F)no1` [Example E5, 6-{(1R,3R)-3-[3-(2,4-Difluorophenyl)-1,2,4-oxadiazol-5-yl]-2,2-dimethylcyclopropyl}pyridine-3-sulfonamide] the same measures were 1300 nM and 500 to 5000 nM.
For `CC1(C)[C@@H](c2ccc(S(N)(=O)=O)nc2)[C@@H]1c1noc(-c2ccccc2)n1` (relative stereo) [Example 11, 5-[trans-2,2-Dimethyl-3-(5-phenyl-1,2,4-oxadiazol-3-yl)cyclopropyl]pyridine-2-sulfonamide], the EC50 is, setting by setting: (read-out: α7 nAChR EC50) 990 nM; (read-out: α7 nAChR Potency) 500 to 5000 nM.
Consider `CC(C)c1noc([C@H]2[C@H](c3ccc(S(N)(=O)=O)cn3)C2(C)C)n1` (racemic) [Example G3, 6-{trans-2,2-Dimethyl-3-[3-(propan-2-yl)-1,2,4-oxadiazol-5-yl]cyclopropyl}pyridine-3-sulfonamide], for which, where the note is “read-out: α7 nAChR Potency”, the EC50 was 500 to 5000 nM.
Regarding `CC1(C)[C@@H](c2ccc(S(N)(=O)=O)nc2)[C@@H]1c1ncc(C2CCCC2)s1` [Example B16, 5-[(1S,3S)-3-(5-Cyclopentyl-1,3-thiazol-2-yl)-2,2-dimethylcyclopropyl]pyridine-2-sulfonamide], the EC50 by setting is: (read-out: α7 nAChR EC50) 1500 nM; (read-out: α7 nAChR Potency) 500 to 5000 nM.
Take `CC1(C)[C@@H](c2nc(C3CC(F)(F)C3)no2)[C@@H]1c1ncc(S(N)(=O)=O)s1` (racemic) [Example D6, 2-{trans-3-[3-(3,3-Difluorocyclobutyl)-1,2,4-oxadiazol-5-yl]-2,2-dimethylcyclopropyl}-1,3-thiazole-5-sulfonamide]: the EC50 (read-out: α7 nAChR Potency) is 5000 to 50000 nM.
For the compound `COc1ccc(Cl)cc1-c1noc([C@H]2[C@H](c3ccc(S(N)(=O)=O)nc3)C2(C)C)n1` [Example B2, 5-{(1S,3S)-3-[3-(5-Chloro-2-methoxyphenyl)-1,2,4-oxadiazol-5-yl]-2,2-dimethylcyclopropyl}pyridine-2-sulfonamide], the EC50 reads like this: (read-out: α7 nAChR EC50) 1700 nM; (read-out: α7 nAChR Potency) 500 to 5000 nM.
As to `CC1(C)[C@@H](c2ccc(S(N)(=O)=O)nc2)[C@@H]1c1nc(-c2ccccc2)no1` (racemic) [Example C6, 5-[trans-2,2-Dimethyl-3-(3-phenyl-1,2,4-oxadiazol-5-yl)cyclopropyl]pyridine-2-sulfonamide], the EC50 (read-out: α7 nAChR Potency) was in the range of 500 to 5000 nM.
As to `CC1(C)[C@H](c2ccc(S(N)(=O)=O)nc2)[C@H]1c1nc(C2CCCCC2)no1` [Example 7, 5-[(1R,3R)-3-(3-Cyclohexyl-1,2,4-oxadiazol-5-yl)-2,2-dimethylcyclopropyl]pyridine-2-sulfonamide], the EC50 reads like this: (read-out: α7 nAChR EC50) 640 nM; (read-out: α7 nAChR Potency) 500 to 5000 nM.
For `CC(C)(C)c1noc([C@H]2[C@H](c3ccc(S(N)(=O)=O)nc3)C2(C)C)n1` [Example B12, 5-[(1S,3S)-3-(3-tert-Butyl-1,2,4-oxadiazol-5-yl)-2,2-dimethylcyclopropyl]pyridine-2-sulfonamide], the EC50 reads like this: (read-out: α7 nAChR EC50) 1600 nM; (read-out: α7 nAChR Potency) 500 to 5000 nM.
For `CC1(C)[C@@H](c2ccc(S(N)(=O)=O)cn2)[C@@H]1c1nc(C2CC(F)(F)C2)no1` (racemic) [Example G5, 6-{trans-3-[3-(3,3-Difluorocyclobutyl)-1,2,4-oxadiazol-5-yl]-2,2-dimethylcyclopropyl}pyridine-3-sulfonamide], in that order: 3600 nM and 500 to 5000 nM.

For the origin of these results see patent US11198687B2, “Heteroaryl allosteric modulators of nicotinic acetylcholine receptors” (Merck Sharp & Dohme Corp., priority 2017, dated 2021).
